Assay results reported in patent EP0162422A2, “The novel physiologically active substance foroxymithine, a process and microorganisms for its production and its use as medicament” (MICROBIAL CHEMISTRY RESEARCH FOUNDATION, priority 1984, dated 1985).

Columns and labels:
[1] = tested on: spontaneous hypertensive rats (SH rats); assay: Effect on blood pressure in spontaneous hypertensive rats after oral administration; format: in vivo
Protocol: This Example illustrates the effect of foroxymithine on blood pressure in spontaneous hypertensive rats (SH rate).
SH rats weighing 320 to 358 g were orally administered foroxymithine dihydrate as an aqueous solution at do- see of 12.5, 25 and 50 mg/kg. After the administration, blood pressure was measured at certain time intervals. Changes in blood pressure in the foroxymithine- administered group were compared with those in the control group orally administered distilled water only.

mice = assay: Acute toxicity studies in mice; format: in vivo; settings: 800 mg/kg i.v.
Text: Foroxymithine is therefore a low-toxicity substance.

[2] = biological target: T1, angiotensin I converting enzyme (Bos taurus, UniProt P12820); assay: Anti-angiotensin I converting enzyme activity (modified Hayakari method, hippuryl-L-histidyl-L-leucine substrate, absorbance at 382 nm); format: biochemical, bovine; settings: material from the purification steps of Examples 2 and 3; read-out: angiotensin I converting enzyme inhibitory activity (IC50) (converted)
T1 construct: obtained from a bovine lung and partially purified; from tissue; host or cells: bovine lung
T1 sequence (P12820 29-1306): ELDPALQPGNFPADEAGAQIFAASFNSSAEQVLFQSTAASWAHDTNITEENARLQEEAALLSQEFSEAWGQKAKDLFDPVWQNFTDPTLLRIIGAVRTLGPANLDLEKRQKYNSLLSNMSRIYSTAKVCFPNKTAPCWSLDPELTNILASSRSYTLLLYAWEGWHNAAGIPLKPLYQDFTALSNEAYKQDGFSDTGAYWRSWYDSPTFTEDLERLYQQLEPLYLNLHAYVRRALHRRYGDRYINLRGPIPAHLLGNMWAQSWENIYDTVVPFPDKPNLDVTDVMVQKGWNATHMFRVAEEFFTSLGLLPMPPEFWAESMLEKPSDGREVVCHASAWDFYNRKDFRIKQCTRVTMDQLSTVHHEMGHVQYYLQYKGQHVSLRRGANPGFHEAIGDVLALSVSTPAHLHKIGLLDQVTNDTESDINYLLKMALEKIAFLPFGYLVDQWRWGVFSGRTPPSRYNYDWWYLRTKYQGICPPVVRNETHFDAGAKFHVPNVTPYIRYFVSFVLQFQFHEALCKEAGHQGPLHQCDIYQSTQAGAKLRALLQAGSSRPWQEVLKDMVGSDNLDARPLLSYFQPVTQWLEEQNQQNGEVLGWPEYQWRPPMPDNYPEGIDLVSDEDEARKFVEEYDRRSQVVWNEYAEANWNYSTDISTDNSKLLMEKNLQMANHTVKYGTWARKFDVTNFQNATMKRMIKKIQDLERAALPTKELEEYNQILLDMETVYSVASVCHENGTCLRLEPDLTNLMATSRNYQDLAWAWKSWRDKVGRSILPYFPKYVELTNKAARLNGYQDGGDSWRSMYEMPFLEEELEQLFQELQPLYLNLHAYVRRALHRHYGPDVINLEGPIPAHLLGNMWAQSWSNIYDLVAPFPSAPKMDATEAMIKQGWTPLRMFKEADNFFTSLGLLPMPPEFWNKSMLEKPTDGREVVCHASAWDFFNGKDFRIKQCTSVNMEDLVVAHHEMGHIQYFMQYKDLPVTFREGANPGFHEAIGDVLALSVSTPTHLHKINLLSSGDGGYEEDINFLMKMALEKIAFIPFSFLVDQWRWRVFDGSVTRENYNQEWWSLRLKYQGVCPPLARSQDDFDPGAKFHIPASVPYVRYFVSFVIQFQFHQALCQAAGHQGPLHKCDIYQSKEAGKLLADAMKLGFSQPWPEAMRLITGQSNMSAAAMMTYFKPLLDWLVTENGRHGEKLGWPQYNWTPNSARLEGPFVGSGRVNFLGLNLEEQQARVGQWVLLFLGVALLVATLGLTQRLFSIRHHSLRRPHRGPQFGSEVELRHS
Protocol: Follow-up of foroxymithine during the cultivation step and the purification step was performed in accordance with the determination of anti-angiotensin I converting enzyme activity by the method to be described below.
Anti-angiotensin I converting enzyme activity was determined by a modification of the angiotensin I converting enzyme determination technique described in M. Hayakari et al., Analytical Biochemistry Vol. 84, pages 361-369 (1978). Hippuryl-L-histidyl-L-leucine as a substrate was dissolved at a concentration of 5 mg/ml in Tris-hydrochloride buffer (0.5M, pH 8.0) containing 0.3M sodium chloride. 0.40 ml of a solution containing a test material was added to 0.05 ml of the resulting solution. The mixture was heated at 37'C for 3 minutes. Then, 0.05 ml of a solution containing angiotensin I converting enzyme that had been obtained from a bovine lung and partially purified was added, and the mixture was reacted for 30 minutes at 37.C. […] After the system was allowed to stand for 15 minutes at room temperature, its absorbance (termed absorbance (a)) at 382 nm was measure. […] The reaction system as the control was measured for absorbance, which was termed absorbance (b). The angiotensin I converting enzyme inhibition rate (%) was calculated from the equation (b-a)/b x 100. […]

[3] = oral dose 12.5 mg/kg, 1 hour after administration
[4] = oral dose 12.5 mg/kg, 3 hours after administration
[5] = oral dose 12.5 mg/kg, 6 hours after administration
[6] = oral dose 12.5 mg/kg, 24 hours after administration
[7] = oral dose 50.0 mg/kg, 1 hour after administration
[8] = oral dose 50.0 mg/kg, 3 hours after administration
[9] = oral dose 50.0 mg/kg, 6 hours after administration
[10] = oral dose 50.0 mg/kg, 24 hours after administration

In the case of `CC(=O)NC(CCCN(O)C=O)C(=O)NC(CO)C(=O)N(O)CCCC1NC(=O)C(CCCN(O)C=O)NC1=O` (stereo not drawn) [Foroxymithine dihydrate, foroxymithine], the “Mean blood pressure ± S.D.” value [1, 3] is reported as 180 ± 0.7 mmHg, the “decrease in blood pressure” value [1, 3] is reported as 14.3% and the “Mean blood pressure ± S.D.” value [1, 4] is reported as 190 ± 28.2 mmHg. The “decrease in blood pressure” value [1, 4] was 9.5%, the “Mean blood pressure ± S.D.” value [1, 5] was 200 ± 14.1 mmHg and the “decrease in blood pressure” value [1, 5] was 4.8%. The “Mean blood pressure ± S.D.” value [1, 6] was 210 ± 14.1 mmHg, the “decrease in blood pressure” value [1, 6] was 0% and the “Mean blood pressure ± S.D.” value ([1]; oral dose 12.5 mg/kg, before administration) was 210 ± 0.7 mmHg. For the same compound, the “Mean blood pressure ± S.D.” value [1, 7] was 160 ± 7.0 mmHg, the “decrease in blood pressure” value [1, 7] was 23.8% and the “Mean blood pressure ± S.D.” value [1, 8] was 153 ± 3.5 mmHg. The “decrease in blood pressure” value [1, 8] was 27.1%, the “Mean blood pressure ± S.D.” value [1, 9] was 193 ± 10.6 mmHg and the “decrease in blood pressure” value [1, 9] was 8.1%. The “Mean blood pressure ± S.D.” value [1, 10] was 213 ± 3.5 mmHg, the “decrease in blood pressure” value [1, 10] was -1.4% and the “Mean blood pressure ± S.D.” value ([1]; oral dose 50.0 mg/kg, before administration) was 210 ± 0.0 mmHg. For the same compound, the “effect on blood pressure” value ([1]; spontaneous hypertensive rats (SH rats), oral, conclusion in words) was “lower blood pressure”, the “deaths (acute toxicity)” value (mice) was “no deaths” and the IC50 [2] was 12.2 µM.
